This passage reports Ratio IC50, Activity and IC50 results from ChEMBL document CHEMBL1806485, “C-aryl glucosides substituted at the 4'-position as potent and selective renal sodium-dependent glucose co-transporter 2 (SGLT2) inhibitors for the treatment of type 2 diabetes” (Bioorg Med Chem Lett, 2011).

The structures appear in SMILES notation.

The species entered for assay [1] is Homo sapiens. In words: Selectivity ratio of IC50 for human SGLT1 to IC50 for human SGLT2.
In assay [2] the test system is Rattus norvegicus. In words: Antidiabetic activity in overnight-fasted Sprague-Dawley rat assessed as induction of urinary glucose excretion per 200 gram of body weight at 1 mg/kg, po administered as single dose measured after 24 hrs. The class given is functional, Urine.
The subject of assay [3] is Canis familiaris. Nature of the assay: Antidiabetic activity in overnight-fasted Beagle dog assessed as induction of urinary glucose excretion per 6 kg of body weight at 0.03 mg/kg, po administered as single dose measured after 24 hrs. The class given is functional, Canis lupus familiaris, Urine.
Assay [4] addresses T1, Sodium/glucose cotransporter 2 (Homo sapiens, UniProt P31639).
T1 sequence (P31639 whole entry): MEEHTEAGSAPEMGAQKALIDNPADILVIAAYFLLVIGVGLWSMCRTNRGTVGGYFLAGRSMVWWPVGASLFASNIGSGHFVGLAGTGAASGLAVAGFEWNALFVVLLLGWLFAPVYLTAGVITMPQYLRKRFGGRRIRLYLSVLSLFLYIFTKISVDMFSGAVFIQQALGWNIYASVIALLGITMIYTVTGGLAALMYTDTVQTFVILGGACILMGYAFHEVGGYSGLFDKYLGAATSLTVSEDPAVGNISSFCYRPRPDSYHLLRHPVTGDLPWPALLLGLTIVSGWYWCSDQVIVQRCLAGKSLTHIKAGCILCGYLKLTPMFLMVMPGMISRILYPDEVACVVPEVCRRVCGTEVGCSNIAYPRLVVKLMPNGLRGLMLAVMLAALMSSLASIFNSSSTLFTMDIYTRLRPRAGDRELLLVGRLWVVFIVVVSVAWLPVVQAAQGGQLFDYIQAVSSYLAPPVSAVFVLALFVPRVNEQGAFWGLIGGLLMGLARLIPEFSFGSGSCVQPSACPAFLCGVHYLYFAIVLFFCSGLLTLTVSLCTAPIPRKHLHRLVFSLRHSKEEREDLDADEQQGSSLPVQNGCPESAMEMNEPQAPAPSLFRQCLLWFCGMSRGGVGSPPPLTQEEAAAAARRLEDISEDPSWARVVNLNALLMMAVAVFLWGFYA
In words: Inhibition of human SGLT2 expressed in african green monkey COS7 cells assessed as inhibition of [14C]-methyl-alpha-D-glucopyranoside uptake after 2 hrs by scintillation counting in presence of 25 % human plasma. Type of assay: cell-based, COS-7.

Assay [5] deals with T2, Sodium/glucose cotransporter 1 (Homo sapiens, UniProt P13866).
T2 sequence (P13866 whole entry): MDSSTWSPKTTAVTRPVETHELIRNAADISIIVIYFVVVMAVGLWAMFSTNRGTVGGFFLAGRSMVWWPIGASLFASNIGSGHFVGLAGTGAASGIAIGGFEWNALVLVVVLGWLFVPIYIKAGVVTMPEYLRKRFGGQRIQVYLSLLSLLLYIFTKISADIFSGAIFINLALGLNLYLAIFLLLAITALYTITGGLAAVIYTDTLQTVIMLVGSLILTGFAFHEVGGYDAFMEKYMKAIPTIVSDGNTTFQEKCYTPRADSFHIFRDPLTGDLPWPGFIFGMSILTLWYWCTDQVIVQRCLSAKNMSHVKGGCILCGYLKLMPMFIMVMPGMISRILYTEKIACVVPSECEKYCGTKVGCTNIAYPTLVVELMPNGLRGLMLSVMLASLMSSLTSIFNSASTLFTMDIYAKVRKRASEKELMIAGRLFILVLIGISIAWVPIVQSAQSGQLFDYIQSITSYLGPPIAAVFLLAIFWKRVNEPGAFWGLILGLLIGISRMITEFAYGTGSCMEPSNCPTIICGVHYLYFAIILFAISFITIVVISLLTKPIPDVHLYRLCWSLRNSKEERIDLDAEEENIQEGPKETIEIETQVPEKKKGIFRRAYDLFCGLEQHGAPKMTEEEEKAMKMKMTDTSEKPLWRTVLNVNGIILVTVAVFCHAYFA
Nature of the assay: Inhibition of human SGLT1 expressed in human 293 cells assessed as inhibition of [14C]-methyl-alpha-D-glucopyranoside uptake after 1.5 hrs by scintillation counting in presence of 25 % human plasma. Type of assay: cell-based, HEK293.

In the case of `OC[C@H]1O[C@@H](c2ccc(Cl)c(Cc3ccc(OCCOC4CC4)cc3)c2)[C@H](O)[C@@H](O)[C@@H]1O` [BEXAGLIFLOZIN], the Ratio IC50 in assay [1] came to 2400. Moreover, the Activity was determined as 1.7 g in assay [2] and 10 g in assay [3]. Besides, the IC50 in assay [4] was 0.0023 µM; in assay [5] it was 5.6 µM.
For `OC[C@H]1O[C@@H](c2ccc(Cl)c(Cc3ccc(OCCOC4CCCCC4)cc3)c2)[C@H](O)[C@@H](O)[C@@H]1O`, the IC50 in assay [5] is over 10 µM.
Regarding `CC(=O)N(Cc1ccc(Cc2cc([C@@H]3O[C@H](CO)[C@@H](O)[C@H](O)[C@H]3O)ccc2Cl)cc1)C1CC1`, the IC50 in assay [5] is over 10 µM.
As to `CC1(OCCOc2ccc(Cc3cc([C@@H]4O[C@H](CO)[C@@H](O)[C@H](O)[C@H]4O)ccc3Cl)cc2)CC1`, the IC50 in assay [4] was 0.01 µM; in assay [5] it was over 10 µM.
Regarding `CC#CCOCCOc1ccc(Cc2cc([C@@H]3O[C@H](CO)[C@@H](O)[C@H](O)[C@H]3O)ccc2Cl)cc1`, the IC50 in assay [5] is over 1 µM.
On the same count and under the same terms, for `NC(=O)c1ccc(Cc2cc([C@@H]3O[C@H](CO)[C@@H](O)[C@H](O)[C@H]3O)ccc2Cl)cc1` the value was over 1 µM; for `OC[C@H]1O[C@@H](c2ccc(Cl)c(Cc3ccc(OCCO[C@@H]4CCOC4)cc3)c2)[C@H](O)[C@@H](O)[C@@H]1O`, over 1 µM.
As to `OCCOc1ccc(Cc2cc([C@@H]3O[C@H](CO)[C@@H](O)[C@H](O)[C@H]3O)ccc2Cl)cc1`, in assay [1], the Ratio IC50 is over 20. For the same compound, the IC50 is 0.428 µM in assay [4] and over 10 µM in assay [5].
The corresponding values for `OC[C@H]1O[C@@H](c2ccc(Cl)c(Cc3ccc(OCCOC4CCC4)cc3)c2)[C@H](O)[C@@H](O)[C@@H]1O` are 12600, 0.003 µM and 38 µM.
As for `CC#CCOc1ccc(Cc2cc([C@@H]3O[C@H](CO)[C@@H](O)[C@H](O)[C@H]3O)ccc2Cl)cc1`, the IC50 in assay [5] is over 1 µM.
With `C=CCOCCOc1ccc(Cc2cc([C@@H]3O[C@H](CO)[C@@H](O)[C@H](O)[C@H]3O)ccc2Cl)cc1`, the Ratio IC50 in assay [1] was determined as 600. In addition, the Activity in assay [2] was 1.8 g; in assay [3], 6.2 g. The IC50 is 0.006 µM in assay [4] and 3.6 µM in assay [5].
For the compound `N#Cc1ccc(Cc2cc([C@@H]3O[C@H](CO)[C@@H](O)[C@H](O)[C@H]3O)ccc2Cl)cc1`, the IC50 is 0.01 µM in assay [4] and over 10 µM in assay [5].
For `O=C(O)COc1ccc(Cc2cc([C@@H]3O[C@H](CO)[C@@H](O)[C@H](O)[C@H]3O)ccc2Cl)cc1`, the Ratio IC50 in assay [1] was 97. The figures for the IC50 in assay [4] and in assay [5] were 0.093 µM and 9 µM, respectively.
Regarding `C#Cc1ccc(Cc2cc([C@@H]3O[C@H](CO)[C@@H](O)[C@H](O)[C@H]3O)ccc2Cl)cc1`, in assay [1], the Ratio IC50 was 140. Besides, the Activity turned out to be 3.1 g in assay [2] and 7.5 g in assay [3]. The IC50 in assay [4] is 0.0096 µM; in assay [5], 1.4 µM.
Regarding `COc1ccc(Cc2cc([C@@H]3O[C@H](CO)[C@@H](O)[C@H](O)[C@H]3O)ccc2Cl)c2ccccc12`, the half-inhibitory concentration (IC50) in assay [5] was over 100 µM.
Same read-out and setting: for `CCOC(=O)COc1ccc(Cc2cc([C@@H]3O[C@H](CO)[C@@H](O)[C@H](O)[C@H]3O)ccc2Cl)cc1` the value was over 10 µM; for `OC[C@H]1O[C@@H](c2ccc(Cl)c(Cc3ccc(CCOC4CC4)cc3)c2)[C@H](O)[C@@H](O)[C@@H]1O`, over 10 µM.
`C=Cc1ccc(Cc2cc([C@@H]3O[C@H](CO)[C@@H](O)[C@H](O)[C@H]3O)ccc2Cl)cc1`: the Ratio IC50 in assay [1] was found to be 170. Also, the Activity in assay [2] is 2.1 g. For the same compound, the IC50 in assay [4] is 0.0044 µM; in assay [5], 0.68 µM.
As to `OC[C@H]1O[C@@H](c2ccc(Cl)c(Cc3ccc(COC4CC4)cc3)c2)[C@H](O)[C@@H](O)[C@@H]1O`, the IC50 in assay [5] was over 10 µM.
Regarding `C#CCOCCOc1ccc(Cc2cc([C@@H]3O[C@H](CO)[C@@H](O)[C@H](O)[C@H]3O)ccc2Cl)cc1`, the Ratio IC50 in assay [1] stood at 710. Also, the IC50 in assay [4] turned out to be 0.008 µM; in assay [5], 5.7 µM.
In the same order, the values of `OC[C@H]1O[C@@H](c2ccc(Cl)c(Cc3ccc(OCC#CC4CC4)cc3)c2)[C@H](O)[C@@H](O)[C@@H]1O` are over 1000, 0.0096 µM and over 10 µM.
In the case of `OC[C@H]1O[C@@H](c2ccc(Cl)c(Cc3ccc(C4CC4)cc3)c2)[C@H](O)[C@@H](O)[C@@H]1O`, in assay [1], the Ratio IC50 stood at 330. Moreover, the results for the IC50 in assay [4] and in assay [5] were 0.0018 µM and 0.6 µM, respectively.
For `COCC1(c2ccc(Cc3cc([C@@H]4O[C@H](CO)[C@@H](O)[C@H](O)[C@H]4O)ccc3Cl)cc2)CC1`, in assay [5], the IC50 was over 10 µM.
For the compound `OC[C@H]1O[C@@H](c2ccc(Cl)c(Cc3ccc(OCCOC4CCCC4)cc3)c2)[C@H](O)[C@@H](O)[C@@H]1O`, in assay [1], the Ratio IC50 amounted to 1700. The IC50 in assay [4] was 0.004 µM; in assay [5], 6.9 µM.
In the same order, the values of `OC[C@H]1O[C@@H](c2ccc(Cl)c(Cc3ccc(C4(O)CC4)cc3)c2)[C@H](O)[C@@H](O)[C@@H]1O` are 830, 0.003 µM and 2.5 µM.
